{"source": "patent US11712458B2", "about": "“Degradation of Bruton's tyrosine kinase (BTK) by conjugation of BTK inhibitors with E3 ligase ligand and methods of use” (DANA-FARBER CANCER INSTITUTE, INC., priority 2018, dated 2023)", "tested_on": "patient-derived mantle cell lymphoma (MCL) cells (DFBL-96069)", "assay": "Patient-derived xenograft MCL mouse model", "type": "in vivo", "conditions": "NSG mice grafted with MCL cells, IP, QD, 50 mg/kg, two weeks; FIG. 5", "procedure": "NSG Mice were grafted with patient-derived mantle cell lymphoma (MCL) cells (DFBL-96069). Once burden of disease reached ˜2%, treatment began with indicated compounds: vehicle (IP, BID), Compound I-1 (IP, QD, 50 mg/kg), lenalidomide (IP, QD, 50 mg/kg), and ibrutinib (PO, QD, 30 mg/kg). Mice were treated for two weeks and 4-6 hours after the last dose, peripheral blood was taken and quantified for disease burden via flow cytometry.", "data": [{"molecule": "Cc1c(NC(=O)c2ccc(C(C)(C)C)cc2)cccc1-c1cn(C)c(=O)c(Nc2ccc(C(=O)N3CCN(CCCCCCNC(=O)CNc4cccc5c4C(=O)N(C4CCC(=O)NC4=O)C5=O)CC3)cc2)n1", "note": "(stereo not shown) [II-1]", "values": [{"measurement": "Efficacy (disease burden in peripheral blood via flow cytometry)", "result": "showed efficacy"}]}]}
